According to BindingDB's records for doi:10.3109/14756360903179401 (Universidad Nacional Autonoma De Mexico, 2010):

Biological target: T1, cDNA, FLJ78895, highly similar to 3-oxo-5-alpha-steroid 4-dehydrogenase 1 (Homo sapiens, UniProt B7Z4L2)
T1 sequence (B7Z4L2 whole entry): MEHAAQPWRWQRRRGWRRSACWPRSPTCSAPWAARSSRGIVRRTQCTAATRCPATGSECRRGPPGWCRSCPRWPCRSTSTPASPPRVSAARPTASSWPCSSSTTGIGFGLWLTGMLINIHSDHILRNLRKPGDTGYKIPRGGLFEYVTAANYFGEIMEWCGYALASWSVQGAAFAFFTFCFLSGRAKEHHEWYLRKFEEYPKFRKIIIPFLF
Experiment: 5α-Reductase Activity Assay
Details: pH 6.5; 37 °C
Method: The reaction mixture contained a final volume of 1 mL: 1 mM dithiothreitol, sodium phosphate buffer 40 mM, at pH 6.5 for human prostate, 2 mM NADPH, 2 nM [1,2,6,7-3H]T [Cabeza et al., Steroids 60:630-5]. The reaction in duplicate was started when it was added to the enzymatic fraction (500 μg protein in a volume of 80 μL) incubated at 37°C for 60 min [Hirosumi et al., J. Steroid Biochem. Mol. Biol., 52:357-63] and stopped by mixing with 1 mL of dichloromethane; this was considered as the end point. Incubation without tissue was used as a control. The mixture (incubation medium/dichloromethane) was agitated on a vortex for 1 min and the dichloromethane phase was separated and placed in another tube. This procedure was repeated four more times. The dichloromethane extract was evaporated to dryness under a nitrogen stream and suspended in […] that was spotted on high-performance thin layer chromatography (HPTLC) Keiselgel 60 F254 plates. T and DHT were used as carriers, and were applied in different lanes on both lateral sides of the plates (T, T + DHT, and DHT). The plates were developed in chloroform-acetone, 9:1, and were air-dried; the chromatography was repeated twice more. The steroid carriers were detected using phosphomolybdic acid reagent (DHT) and with an ultraviolet (UV) lamp (254 nm) (T). After the plates were segmented into pieces of 1 cm each, these were cut off and the strips soaked in 5 mL of Ultima Gold (Packard). The radioactivity was determined in a scintillation counter (Packard Tri-Carb 2100 TR). The radioactivity content in the segment corresponding to T and DHT carriers was identified. Radioactivity with identical chromatographic behavior to the DHT standard was considered as the DHT transformation.

IC50 [nM]	Compound
22	CC(=O)O[C@]1(C(C)=O)CCC2C3C(CC[C@@]21C)[C@@]1(C)CCC(=O)C=C1[C@H]1O[C@@H]31 (stereo partly drawn) [3,20-Dioxo-6,7-epoxypregn-4-ene-7α-yl acetate (8)]
19	CC(=O)O[C@]1(C(C)=O)CCC2C3C=C(Cl)C4=CC(=O)CC[C@]4(C)C3CC[C@@]21C (stereo partly drawn) [6-Chloro-3,20-dioxopregna-4,6-diene-17α-yl acetate (9)]
8.5	CC(C)(C)NC(=O)C1CCC2C3CCC4NC(=O)C=C[C@]4(C)C3CC[C@]12C (stereo not given in full) [Finasteride (3)]

Compound	IC50 [nM]
CC(=O)O[C@]1(C(C)=O)CCC2C3C=CC4=CC(=O)CC[C@]4(C)C3CC[C@@]21C (stereo partly drawn) [3,20-Dioxopregna-4,6-dien-17α-yl acetate (7)]	70
CC(=O)O[C@]1(C(C)=O)CCC2C3CCC4=CC(=O)CC[C@]4(C)C3CC[C@@]21C (stereo partly drawn) [17α-Acetoxyprogesterone (6)]	10
